Series [1] concerns GSK-3β (total and p-Ser9). Nature of the series: Western blot of total and phosphorylated GSK-3β in tauRD-DsRed SH-SY5Y cells. It is filed as cell-based, human. The procedure: Western blotting analysis was applied for examining the expressions of HSPB1 and GRP78, the method was as follows: total proteins were extracted using RIPA buffer, which comprised 50 mM Tris-HCl, 150 mM NaCl, 1 mM EDTA, 1 mM EGTA, 0.1% SDS, 0.5% sodium deoxycholate, 1% Triton X-100, and a protease inhibitor cocktail (Calbiochem). […] of total proteins were separated on 10% SDS-PAGE gels and blotted onto nitrocellulose membrane which were stained (4° C., overnight) with antibodies against DsRed (1:500; Santa Cruz), HSPB1 (1:500; Santa Cruz), and GRP78 (1:200; Santa Cruz). Next, immunoreactive bands were detected using horseradish peroxidase-conjugated goat anti-mouse, goat anti-rabbit, or donkey anti-goat IgG antibodies (1:5000; GeneTex) and chemiluminescent substrate (Millipore).
The methods of cell culture and western blot analysis are similar to that described above, except that the antibodies against GSK-3β (total and p-Ser9) (1:1000; Cell Signaling), total tau (1:500; Dako), p-tau (Ser202) (1:500; AnaSpec), p-tau (Thr231 and Ser396) (1:1000; Invitrogen), [3-actin (1:5000; Millipore), or GAPDH (1:2000; MDBio) were used herein for evaluation of the expression levels thereof in the cells.
A general note: In western blotting, separated proteins are transferred to a membrane and probed.

Series [2] concerns mouse hippocampal primary culture cells. Nature of the series: Mouse hippocampal primary culture under tau toxicity (WT and GFX). The note with it: 10 nM WT and GFX; 0.1, 0.25, 0.5 μM compound (I), 12 hours. It is filed as cell-based. The procedure: The mouse hippocampal primary culture cells were isolated from the hippocampi of C57BL/6J mouse embryos at days 16-18. On days in vitro (DIV) 4 and 7, 2 μM of cytosine arabinoside was added to the culture medium for reducing the glial cell populations. On DIV 9, the cells were treated with 10 nM of Wortmannin (WT) and GF109203X (GFX) to induce tau hyperphosphorylation for mimicking an AD condition. 0, 0.1, 0.25, and 0.5 μM of compound (I) were then added to the cells at DIV 9. Cells were harvested 12 hours later for immunocytochemical staining with NeuN (for neuron) and MAP2 (for neurite morphology) antibodies.

Series [3] in a line: Body weight monitoring in STZ 3×Tg-AD mice. The note with it: 0.25 mg/kg i.p. daily 28 days; NBG vs HBG groups treated with compound (I). The class given is in vivo, mouse. The procedure: (§1) Hyperglycemia was induced by streptozotocin (STZ) to accelerated Alzheimer's disease progression of 6-month-old male transgenic 3×Tg−AD mice. Half of the 3×Tg−AD mice (n=30) received STZ (100 mg/kg) intraperitoneal injection at days 1, 2, 8, and 9 respectively as the high blood glucose group (HBG); another half of the 3×Tg-AD mice (n=30) received sodium citrate (0.1 M) at the same time points as the normal blood glucose group (NBG). Then, HBG and NBG were divided into two groups respectively to give four groups such as NBG-compound (I), HBG-compound (I), NBG-DMSO, and HBG-DMSO with n=15 in each group; wherein 0.25 mg/kg of compound (I) (in 30 μL) were intraperitoneal injected into those mice of NBG-compound (I) and HBG-compound (I) groups daily since day 14 for 28 days, and 30 μL of DMSO solvent were intraperitoneal injected into those mice of NBG-DMSO and HBG-DMSO groups daily since day 14 for 28 days. Both mouse body weight (BW) and blood glucose (BG) were monitored every week.

The subject of series [4] is phosphorylated tau protein. Nature of the series: Western blot of mouse hippocampal tissue, phosphorylated tau. The conditions noted are these: hyperglycemic 3×Tg-AD mice; 0.25 mg/kg i.p. daily vs DMSO. It is filed as in vivo. The procedure: (§2) Hyperglycemia was induced by streptozotocin (STZ) to accelerated Alzheimer's disease progression of 6-month-old male transgenic 3×Tg−AD mice. Half of the 3×Tg−AD mice (n=30) received STZ (100 mg/kg) intraperitoneal injection at days 1, 2, 8, and 9 respectively as the high blood glucose group (HBG); another half of the 3×Tg-AD mice (n=30) received sodium citrate (0.1 M) at the same time points as the normal blood glucose group (NBG). […] Both mouse body weight (BW) and blood glucose (BG) were monitored every week.
Mice were sacrificed after MWM and hippocampi were isolated for analyzing several protein expression levels by means of western blot. The protein of the hippocampi was quantified by BCA assay (Pierce), wherein 25 μg of protein was separated by SDS-PAGE and then transferred to PVDF film. Next, protein was blocked for reducing non-specific signals, and reacted with primary antibodies (GSK-3β, pS9-GSK-3β (non-activated), pT216-GSK-3β(activated), pS202Tau, pS396Tau, pT231Tau, HT7 (total Tau)), and secondary antibodies (anti-rabbit, anti-mouse IgG HRP-linked antibody; 1:10,000; Amersham Pharmacia Biotech). β-actin was used as the loading control, ECL kit was used to detect the antigen-antibody complex, and LAS-4000 (Fujifilm) was used for imaging and quantification.

Series [5] deals with GFAP (astrocytes) and Iba1 (microglia). Description: Immunohistochemical staining of GFAP and Iba1 (neuro-inflammation in hippocampus). It is filed as in vivo, mouse. The conditions noted are these: 0.25 mg/kg i.p. daily 28 days. The procedure: as §1
After the brain tissue of the mice were fixed and dehydrated, the tissue was cryosectioned (30 μm). The cryosections were then washed with phosphate buffered saline (PBS) three times. After the optimal cutting temperature compound (OCT) was removed, 3% H2O2was used to remove the endogenous peroxidase, and the cryosection was blocked by the blocking solution for 1 hour to reduce non-specific antigen reactions. The primary antibodies GFAP (astrocytes) and Iba1 (microglia) were added and reacted for 12 hours, the secondary antibody (1:200 dilution in blocking solution, Vecter) was added and reacted for 1 hour, and then, the avidin-biotin complex was added and reacted for 1 hour. Finally, DAB-kit was used for coloring. All the stained sections were attached to the slides, dried, dehydrated, and mounted for imaging and quantification (Image Pro Plus) to evaluate the neuro-inflammation in mouse hippocampus. The quantification results were shown in Table 2, wherein ↑↑↑, ↓↓↓:p<0.001.

Another series relates to IL-6 and TNF-α. Description: Content analysis of IL-6 and TNF-α in serum (ELISA). It is filed as in vivo, mouse. The note with it: both normal and high blood glucose groups; 0.25 mg/kg i.p. daily. The procedure:
as §2
Additionally, the peripheral inflammatory cytokine in four groups of mice were evaluated. The collected blood was centrifuged (2000×g) for 20 minutes at 4° C., and the supernatant was analyzed using mouse TNF-α ELISA kit and IL-6 ELISA kit (R&D system). OD450 nm absorbance was detected by ELISA reader, and the concentration of IL-6 and of TNF-α were obtained by interpolating the standard curve and shown in FIG. 11, wherein *p<0.05. […]

With `CCCCC/C=C\C/C=C\C/C=C\C/C=C\CCCC(=O)Nc1ccc(O)cc1` [compound (I), (5Z, 8Z, 11Z,14Z)-N-(4-Hydroxyphenyl)icosa-5 ,8 , 11,14-tetraen amide], in series [1], the GSK-3β expression result is reported as “down-regulated” and the “expression level of phosphorylated GSK-3β” value is recorded as “increased”. Moreover, the “neuronal survival and neurite length” value in series [2] is “alleviate the phenomena of low neuronal survival rate and short neurite length”. The “body weight (BW)” value in series [3] is “no significant difference in BW”. Also, in series [4], the “expression level of phosphorylated tau protein in hippocampus” value is “lower than that of the mice administrated with DMSO”. For the same compound, in series [5] (HBG 3×Tg-AD mice), the GFAP staining quantification is 15.63 ± 2.05↓↓↓ and the Iba1 staining quantification is recorded as 29.43 ± 0.78↓↓↓. In series [5] (NBG 3×Tg-AD mice), this compound gave a GFAP staining quantification of 3.33 ± 1.02 and an Iba1 staining quantification of 34.25 ± 2.19. Further, in the series on IL-6 and TNF-α, the “IL-6 level in serum” value is “down-regulated” and the “TNF-α level in serum” value was “down-regulated”.

(Values after patent US20170202792A1, “METHOD FOR TREATING TAU-ASSOCIATED DISEASES” (NATIONAL TAIWAN NORMAL UNIVERSITY, priority 2016, published 2017).)
